Laboratory results from patent publication US20240101548A1, “HYDROXAMATE COMPOUND, PREPARATION METHOD THEREFOR AND APPLICATION THEREOF” (SHENZHEN CHIPSCREEN BIOSCIENCES CO., LTD., priority 2020, published 2024).
Like-named read-outs stand apart in the source and are kept apart here.

Legend:
[1] = tested on: IL-2-induced JAK1/JAK3 signal pathway; test: IL-2-induced proliferation of KHYG-1 cells (JAK1/JAK3 signal); format: cell-based, human; conditions: Homo sapiens, read-out: Inhibition activity IC50 on IL-2-induced JAK1/JAK3 signal pathway
Text: The main physiological function of cytokine IL-2 is to stimulate and maintain the proliferation and differentiation of T cells. Generally, IL-2 dependent T cells cannot survive in in-vitro culture for a long time, but the addition of IL-2 can make them continue to proliferate. The signal pathway induced by IL-2 coupling with its receptor is mediated by JAK1/JAK3-STAT5, so the inhibitor of JAK1 and/or JAK3 can inhibit the proliferation of IL-2 dependent cells.
Human natural killer cell lymphoma cell line KHYG-1 was commercially available from Health Science Research Resources Bank (HSRRB), and relevant culture conditions referred to those from HSRRB.
The inhibition rate of the tested compound on IL-2-induced cell proliferation was calculated using Microsoft Excel.
After culture at 37° C. and 5% CO2 for 72 hours, alamarBlue™ Cell Viability Reagent was added to each well following the instructions.
(§1) The well in which neither compound nor cytokine was added was designated as 0% control well, and the fluorescence value in the wells in which the final concentration of compound was 0 was designated as 100% control. The inhibition activity C50 of the tested compound on JAK1/JAK3 could be calculated from the inhibition rate of the tested compound on IL-2-induced cell proliferation at different doses.

[2] = tested on: EPO-induced JAK2 signal pathway; test: EPO-induced proliferation of UT-7 cells (JAK2 signal); format: cell-based, human; conditions: Homo sapiens, UT7; UT-7 cell proliferation, EPO 10 ng/mL, 72 hours; read-out: Inhibition activity IC50 on EPO-induced JAK2 signal pathway
Protocol: The cytokine EPO, i.e. erythropoietin, can promote the proliferation and division of erythroid progenitor cells, and the signal pathway induced by EPO coupling with its receptor is mediated by JAK2-STAT5.
Human promegakaryocytic leukemia cell line UT-7 was commercially available from Cell Resource Center, Institute of Basic Medicine, Chinese Academy of Medical Sciences. The culture medium was RPIM1640 containing 10% FBS, and EPO was added for a final concentration of 10 ng/mL.
The inhibition rate of the tested compound on EPO-induced cell proliferation was calculated using Microsoft Excel.
UT-7 cell line was inoculated in 96-well plate with flat bottom at 15000 cells per well, each well was added with 10 ng/mL of human recombinant EPO (Human EPO PEPROTECH 100-64-10UG), along with tested compound respectively for a final concentration of 0, 100, 1000 or 10000 nM. After culture at 37° C. and 5% CO2 for 72 hours, alamarBlue™ Cell Viability Reagent was added to each well following the instructions. After incubation at 37° C. for color reaction, the fluorescence value at Ex530/Em590 was detected using Tecan Spark™ 10M multimode microplate reader.
as §1, with “[…]” for “0%”, “100” for “100%”, “[…] ofthe” for “C50 of the”, “JAK2” for “JAK1/JAK3”, “ofthe” for “of the”, “EPO-induced” for “IL-2-induced”

[3] = KHYG-1 cell proliferation, IL-2 10 ng/mL, 72 hours

| Structure (SMILES) | IC50 [1, 3] | IC50 [2] | IC50 ([1]; KHYG-1, 72 h) |
| --- | --- | --- | --- |
| CCONC(=O)c1cnc(Nc2nc(C)cc(C)n2)cc1Nc1ccc(C)cc1N(C)S(=O)(=O)C1CC1 [Example 66, 6-((4,6-dimethylpyrimidin-2-yl)amino)-N-ethoxy-4-((4-methyl-2-(N-methylcyclopropylsulfonamido)phenyl)amino)nicotinamide] | > 10 µM | > 10 µM | – |
| CONC(=O)c1cnc(Nc2cccc(F)n2)cc1Nc1cccc(C(F)(F)F)c1N(C)S(C)(=O)=O [Example 83, 6-((6-fluoropyridin-2-yl)amino)-N-methoxy-4-((2-(N-methylmethanesulfonamido)-3-(trifluoromethyl)phenyl)amino)nicotinamide] | > 10 µM | > 10 µM | – |
| CCONC(=O)c1cnc(Nc2ccc(C3CC3)cn2)cc1Nc1ccccc1N(C)S(C)(=O)=O [Example 27, 6-((5-cyclopropylpyridin-2-yl)amino)-N-ethoxy-4-((2-(N-methylmethanesulfonamido)phenyl)amino)nicotinamide] | > 10 µM | > 10 µM | – |
| CCONC(=O)c1cnc(Nc2cc(C)nc(C)n2)cc1Nc1ccc(Cl)cc1N(C)S(=O)(=O)C1CC1 [Example 184] | > 10 µM | > 10 µM | – |
| CCONC(=O)c1cnc(Nc2ccnn2C)cc1Nc1ccc(C2CC2)cc1N(C)S(C)(=O)=O [Example 161, 4-((4-cyclopropyl-2-(N-methylmethanesulfonamido)phenyl)amino)-N-ethoxy-6-((1-methyl-1H-pyrazol-5-yl)amino)nicotinamide] | > 10 µM | > 10 µM | – |
| CONC(=O)c1cnc(NC(=O)C2CC2)cc1Nc1cnccc1N(C)S(C)(=O)=O [Example 56, 6-(cyclopropylcarboxamido)-N-methoxy-4-((4-(N-methylmethanesulfonamido)pyridin-3-yl)amino)nicotinamide] | > 10 µM | > 10 µM | – |
| CONC(=O)c1cnc(Nc2cccc(F)n2)cc1Nc1ccccc1OC1COC1 [Example 40] | > 10 µM | > 10 µM | – |
| CONC(=O)c1cnc(NC(=O)C2CC2)cc1Nc1cccc(-c2cnn(C)c2)c1C#N [Example 48, 4-((2-cyano-3-(1-methyl-1H-pyrazol-4-yl)phenyl)amino)-6-(cyclopropylcarboxamido)-N-methoxy nicotinamide] | > 10 µM | > 10 µM | – |
| CONC(=O)c1cnc(Nc2ccc(C#N)cc2)cc1Nc1ccccc1N(C)S(C)(=O)=O [Example 103, 6-((4-cyanophenyl)amino)-N-methoxy-4-((2-(N-methylmethanesulfonamido)phenyl)amino)nicotinamide] | > 10 µM | > 10 µM | – |
| CONC(=O)c1cnc(Nc2cccc(F)n2)cc1Nc1cccc(-c2ccn(C)n2)c1OC [Example 30, 6-((6-fluoropyridin-2-yl)amino)-N-methoxy-4-((2-methoxy-3-(1-methyl-1H-pyrazol-3-yl)phenyl)amino)nicotinamide] | > 10 µM | > 10 µM | – |
| CONC(=O)c1cnc(NC(=O)C2CC2)cc1Nc1cccc(C(N)=O)c1OC [Example 57, 4-((3-carbamoyl-2-methoxyphenyl)amino)-6-(cyclopropylcarboxamido)-N-methoxy nicotinamide] | > 10 µM | > 10 µM | – |
| CONC(=O)c1cnc(NC(=O)C2CC2)cc1Nc1cccn(-c2nccs2)c1=O [Example 1, 6-(cyclopropylcarboxamido)-N-methoxy-4-((2-oxo-1-(thiazol-2-yl)-1,2-dihydropyridin-3-yl)amino)nicotinamide] | > 10 µM | > 10 µM | – |
| CCONC(=O)c1cnc(Nc2ccc(C3CC3)cn2)cc1Nc1ccc(Cl)cc1N(C)S(C)(=O)=O [Example 152, 4-((4-chloro-2-(N-methylmethanesulfonamido)phenyl)amino)-6-((5-cyclopropylpyridin-2-yl)amino)-N-ethoxy nicotinamide] | > 10 µM | > 10 µM | – |
| CONC(=O)c1cnc(NC(=O)C2CC2)cc1Nc1ccc(C)nc1N(C)S(C)(=O)=O [Example 59, 6-(cyclopropylcarboxamido)-N-methoxy-4-((6-methyl-2-(N-methylmethanesulfonamido)pyridin-3-yl)amino)nicotinamide] | > 10 µM | > 10 µM | – |
| CON(C)C(=O)c1cnc(Nc2cccc(F)n2)cc1Nc1ccccc1N(C)S(C)(=O)=O [Example 65, 6-((6-fluoropyridin-2-yl)amino)-N-methoxy-N-methyl-4-((2-(N-methylmethanesulfonamido)phenyl)amino)nicotinamide] | – | > 10 µM | > 10 µM |
| CCONC(=O)c1cnc(Nc2ccnn2C)cc1Nc1ccc(N2CCOCC2)cc1N(C)S(C)(=O)=O [Example 135] | > 10 µM | > 10 µM | – |
| CCONC(=O)c1cnc(Nc2ccn(C)n2)cc1Nc1ccc(N2CCOCC2)cc1N(C)S(C)(=O)=O [Example 137] | > 10 µM | > 10 µM | – |
| CONC(=O)c1cnc(Nc2ccc(F)cc2)cc1Nc1ccccc1N(C)S(C)(=O)=O [Example 104, 6-((4-fluorophenyl)amino)-N-methoxy-4-((2-(N-methylmethanesulfonamido)phenyl)amino)nicotinamide] | > 10 µM | > 10 µM | – |
| CONC(=O)c1cnc(NC(=O)C2CC2)cc1Nc1cccc(C#N)c1OC [Example 31, 4-((3-cyano-2-methoxyphenyl)amino)-6-(cyclopropylcarboxamido)-N-methoxy nicotinamide] | > 10 µM | > 10 µM | – |
| CCONC(=O)c1cnc(Nc2ccnn2C)cc1Nc1cc(F)c(C2CC2)cc1N(C)S(C)(=O)=O [Example 168, 4-((4-cyclopropyl-5-fluoro-2-(N-methylmethanesulfonamido)phenyl)amino)-N-ethoxy-6-((1-methyl-1H-pyrazol-5-yl)amino)nicotinamide] | > 10 µM | > 10 µM | – |
| CONC(=O)c1cnc(NC(=O)C2CC2)cc1Nc1cccc(F)c1N(C)S(C)(=O)=O [Example 32, 6-(cyclopropylcarboxamido)-4-((3-fluoro-2-(N-methylmethanesulfonamido)phenyl)amino)-N-methoxy nicotinamide] | > 10 µM | > 10 µM | – |
| CCONC(=O)c1cnc(Nc2cccc(F)n2)cc1Nc1ccccc1NS(C)(=O)=O [Example 117, N-ethoxy-6-((6-fluoropyridin-2-yl)amino)-4-((2-(methanesulfonamido)phenyl)amino)nicotinamide] | > 10 µM | > 10 µM | – |
| CONC(=O)c1cnc(Nc2ccc(F)cn2)cc1Nc1cccc(Cl)c1N(C)S(C)(=O)=O [Example 77, 4-((3-chloro-2-(N-methylmethanesulfonamido)phenyl)amino)-6-((5-fluoropyridin-2-yl)amino)-N-methoxy nicotinamide] | > 10 µM | > 10 µM | – |
| CCONC(=O)c1cnc(Nc2ccc(C)nc2)cc1Nc1ccc(C2CC2)cc1N(C)S(C)(=O)=O [Example 148, 4-((4-cyclopropyl-2-(N-methylmethanesulfonamido)phenyl)amino)-N-ethoxy-6-((6-methylpyridin-3-yl)amino)nicotinamide] | > 10 µM | > 10 µM | – |
| CCONC(=O)c1cnc(Nc2cc(C)ccn2)cc1Nc1ccc(C2CC2)cc1N(C)S(C)(=O)=O [Example 147, 4-((4-cyclopropyl-2-(N-methylmethanesulfonamido)phenyl)amino)-N-ethoxy-6-((4-methylpyridin-2-yl)amino)nicotinamide] | > 10 µM | > 10 µM | – |
